In patent US20060078494A1, “Use of inhibitors of 24-hydroxylase in the treatment of cancer” (Sapphire Therapeutics, Inc., priority 2004, published 2006):

What was measured:
[1] = system: C57BL6 murine ID8 ovarian carcinoma cell line; experiment: Mouse syngeneic model of ovarian carcinoma (ID8 VEGF164/GFP); type: in vivo, C57BL6 mice; settings: expected; for tumor growth delay compared with vehicle control: single agent (inhibitor 2 mg/kg; cisplatin 2 or 6 mg/kg)
Procedure: The efficacy of a 24-hydroxylase inhibitor, alone or in combination with a chemotherapeutic agent is tested in a mouse syngeneic model of ovarian carcinoma using methods as described in Zhang et al., (Am. J. of Pathol. (2002) 161:2295-2309). Briefly, using retroviral transfection and fluorescence-activated cell sorting, a C57BL6 murine ID8 ovarian carcinoma cell line is generated that stably overexpresses the murine VEGF164 isoform and the enhanced green fluorescence protein (GFP). The retroviral construct containing VEGF164 and GFP cDNAs is then transfected into BOSC23 cells. The cells are analyzed by FACS cell sorting, and cells showing high GFP fluorescence are identified and isolated. The ID8 VEGF164/GFP transfected cells are cultured to subconfluence and prepared in a single-cell suspension in phosphate buffer saline (PBS) and cold […] (BD Biosciences, Bedford, Mass.). Six to eight week old female C57BL6 mice are injected subcutaneously in the flank with 5×10^6 transfected or untransfected (control) cells. Animals are sacrificed eight weeks after inoculation and evaluated for tumor growth. Mice are treated with a 24-hydroxylase inhibitor (VID 400/RC-8800) beginning 3-14 days following tumor implantation. Mice are treated in the following groups, with 5 mice for each group:
The agents are administered on a daily basis for 14 days. Animals are monitored daily for body weight, and significant morbidity.

[2] = target: T1, 24-hydroxylase (CYP24) (Homo sapiens, UniProt Q07973); settings: identified by Schuster et al., J. Cell. Biochem. 88:372-380 (2003); cited from earlier work
T1 construct: confluent cultures of human keratinocytes are isolated from adult skin in serum-free keratinocyte growth medium; endogenous in cells; host or cells: primary human keratinocytes from adult skin
T1 sequence (Q07973 36-514): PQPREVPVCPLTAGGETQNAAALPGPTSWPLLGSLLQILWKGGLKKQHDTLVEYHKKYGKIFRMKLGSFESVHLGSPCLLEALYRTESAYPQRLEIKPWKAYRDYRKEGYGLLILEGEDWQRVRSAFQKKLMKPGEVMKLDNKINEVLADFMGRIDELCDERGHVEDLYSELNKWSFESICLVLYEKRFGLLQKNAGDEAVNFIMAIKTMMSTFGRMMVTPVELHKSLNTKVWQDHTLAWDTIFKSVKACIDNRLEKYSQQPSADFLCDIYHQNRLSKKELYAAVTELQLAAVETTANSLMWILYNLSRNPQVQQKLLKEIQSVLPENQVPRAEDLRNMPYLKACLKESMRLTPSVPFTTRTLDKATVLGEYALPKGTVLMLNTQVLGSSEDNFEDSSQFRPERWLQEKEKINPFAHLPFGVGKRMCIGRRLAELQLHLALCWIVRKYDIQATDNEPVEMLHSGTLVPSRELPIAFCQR

[3] = system: Human RL B-lymphoma cells; experiment: Human RL B-lymphoma cells in SCID mice; type: in vivo; settings: expected
Procedure: Human RL B-lymphoma cells (Beckwith et al. (1990) J. Nat. Cancer Inst. 82, 501) are maintained in vitro by passage in growth medium. The cells are washed thoroughly in PBS to remove culture components. SCID mice are injected with one million human lymphoma cells via the tail vein in 100 microliters (μl). 24-hydroxylase inhibitor treatment is initiated the following day by daily intraperitoneal (i.p.) injection of 3 mg/kg 24-hydroxylase inhibitor (VID400), alone or in combination with doxorubicin at 5 mg/kg, or vehicle. Mice are monitored for survival and significant morbidity. […] Depending on the lymphoma cell line employed, the untreated mice typically die within 3 to 6 weeks.

[4] = target: T2, 24-hydroxylase (Homo sapiens, UniProt Q07973); settings: described by Kahraman et al., J. Med. Chem. 47:6854-6863 (2004); cited from earlier work
T2 sequence (Q07973 36-514): T1 sequence (Q07973 36-514)

With `O=C(NC[C@@H](c1ccccc1)n1ccnc1)c1ccc(-c2ccc(Cl)cc2)cc1` [(R)-VID400, 2-(R)-4′-Chlorobiphenyl-4-carboxylic acid (2-imidazol-1-yl-2-phenyl-ethyl)-amide] the tumor growth delay ([1]; 24-hydroxylase inhibitor 2 mg/kg + cisplatin 2 or 6 mg/kg, daily for 14 days, vs cisplatin alone at same dosage or inhibitor alone) was “delay longer than cisplatin alone”, the body weight ([1]; 24-hydroxylase inhibitor 2 mg/kg + cisplatin, vs vehicle or single therapy controls of same dosage) was “maintain body weight significantly more” and the “tumor growth delay compared with vehicle control” value ([1]; daily for 14 days) was “significant delay”. For the same molecule, the “inhibition of 24-hydroxylase” value [2] was “potent inhibitors” and the “inhibition in tumor growth” value ([3]; VID400 3 mg/kg i.p. daily in combination with doxorubicin 5 mg/kg) was “highest growth inhibition”.
For `C=C1/C(=C\C=C2/CCCC3(C)C2CC[C@@H]3[C@H](C)CCS(=N)(=O)c2ccc(F)cc2)C[C@@H](O)C[C@@H]1O` (stereo partly drawn) [Formula VI], the “potency as 24-hydroxylase inhibitor (structure activity relationships)” value [4] is listed as “slightly less potent”.
For `COc1cccc2c1C(=O)c1c(O)c3c(c(O)c1C2=O)C[C@@](O)(C(=O)CO)C[C@@H]3O[C@H]1C[C@H](N)[C@H](O)[C@H](C)O1` [doxorubicin, reference compound], the “inhibition in tumor growth” value ([3]; doxorubicin 5 mg/kg alone, SCID mice, RL B-lymphoma) was “significant inhibition”.
With `N.N.[Cl][Pt][Cl]` [Cisplatin, reference compound] the “tumor growth delay compared with vehicle control” value ([1]; daily for 14 days) was “significant delay”.
For `C=C1/C(=C\C=C2/CCCC3(C)C2CC[C@@H]3[C@H](C)CCS(=N)(=O)c2ccccc2)C[C@@H](O)C[C@@H]1O` (stereo partly drawn) [Formula V], the “potency as 24-hydroxylase inhibitor (structure activity relationships)” value [4] is given as “most potent”.
